How the values were obtained:
I-kappaBa in U-937 cells = test: I-kappaBa degradation (Western blot); assay type: cell-based; conditions: 0.1-1.0 μg/ml, 12 hours
Protocol: These experiments were elaborated by determining a degradation profile for I-kappaBa in U-937 cells in response to treatment with TNF-gamma. A time course of I-kappaBa degradation was determined by Western blot analysis, a technique that is well-known by one of ordinary skill in the art and has been described by Singh and Aggarwal (J. Biol. Chem. 270:24995-25000 (1995)).

[1] = system: MC-38 murine colon cancer; test: In vivo tumorigenicity assay, syngeneic MC-38 colon cancer; parameters: species or system C57BL6/6 mice; conditions: local production by transfected MCA 38 cells, 1×10^6 cells/mouse
Protocol: [The full-length TNF-gamma and extracellular domain of DR3 was cloned into pcDNA3 expression vector and transfected to MCA 38 cells, respectively. After selection and cloning, three clones from each constructs were picked for tumorigenicity study. MCA 38 cells (1×10^6 cells/mouse) expressing TNF-gamma or DR3 extracellular domain were injected into C57BL6/6 mice. The tumor size was assessed by measuring perpendicular diameters with a caliper and calculated by multiplying the measurements of diameters in two dimensions. Data are represented as the mean +/−SD of 6 mice in each group.] It is clear that most immune cells and cancer cells can express more than one TNF receptor (even more than one death receptor) and ligand superfamily member. […] Moreover, the expression of these ligands and receptors may differ at the level of individual cell types within tissues and the expression level on the same cell type may also differ.
The full length TNF-gamma and extracellular domain of DR3 was cloned into pcDNA3 expression vector (Invitrogen, Carlsbad, Calif.) and transfected to MCA 38 cells, respectively. […] Mice then were randomized and tumors were measured twice weekly. The tumor size was assessed by measuring perpendicular diameters with a caliper and calculated by multiplying the measurements of diameters in two dimensions. […]

NRK-54E = test: TNF-gamma activity on NRK-54E cells; assay type: cell-based; parameters: key: The numbers of “+” indicate the relative level of activities.; ++: The numbers of “+” indicate the relative level of activities.; +++: The numbers of “+” indicate the relative level of activities.; “−” indicates no detected activity at the concentration range tested; conditions: rat kidney epithelial-like
Jurkat = test: TNF-gamma activity on Jurkat cells; assay type: cell-based; parameters: key: The numbers of “+” indicate the relative level of activities.; ++: The numbers of “+” indicate the relative level of activities.; +++: The numbers of “+” indicate the relative level of activities.; “−” indicates no detected activity at the concentration range tested; conditions: human T-cell lymphoma
Protocol: The adherent target cells were prepared from confluent cultures by trypsinization in PBS, and non-adherent target cells were harvested from stationary cultures and washed once with medium. Target cells were suspended at 3×10^5 cells/ml in medium containing 10% FCS. 0.1 ml aliquots were dispensed into 96-well flat-bottomed microtiter plates containing 0.1 ml serially diluted test samples of cells (WEHI 164 and L929). Incubation was continued for 70 hours. TNF-alpha, TNF-beta and bacterially-produced TNF-gamma were added at a 0.5 μg/ml concentration. The cytotoxicity and proliferation activity was quantified using an MTS assay performed by the addition of 20 μl of MTS and phenazine methosulfate (PMS) solution to each well. After a three hour incubation, the OD at 492 nm was measured by an ELISA plate reader. The OD492 is proportional to the number of viable cells in the wells. The percent of cytotoxicity was calculated as follows: […]. The photographs were taken after 72 hours.

A-431 = test: TNF-gamma activity on A-431 cells; assay type: cell-based; parameters: key: The numbers of “+” indicate the relative level of activities.; ++: The numbers of “+” indicate the relative level of activities.; +++: The numbers of “+” indicate the relative level of activities.; “−” indicates no detected activity at the concentration range tested; conditions: A-431, human epidermoid carcinoma
THP-1 = test: TNF-gamma activity on THP-1 cells; assay type: cell-based; parameters: key: The numbers of “+” indicate the relative level of activities.; ++: The numbers of “+” indicate the relative level of activities.; +++: The numbers of “+” indicate the relative level of activities.; “−” indicates no detected activity at the concentration range tested; conditions: THP-1, human monocytic leukemia

**Q.** What does the source list for “TNF-gamma: new member of the tumor necrosis factor family; the term refers to TNF-gamma-alpha and/or TNF-gamma-beta”?
**A.** I-kappaBa degradation (I-kappaBa in U-937 cells): completely degraded; tumor growth [1]: caused complete tumor suppression; Adhesion (NRK-54E): −−; Differentiation (NRK-54E): −−; Proliferation (NRK-54E): −; Adhesion (Jurkat): −−; Differentiation (Jurkat): −−; Proliferation (Jurkat): −; Adhesion (A-431): −−; Differentiation (A-431): −−; Proliferation (A-431): −; Adhesion (THP-1): ++; Differentiation (THP-1): ++; Proliferation (THP-1): −

Reference: patent US20030129189A1, “Tumor necrosis factor-gamma” (priority 1994, published 2003)
